Source: US11370774B2, “Substituted benzofuran, benzopyrrole, benzothiophene, and structurally related complement inhibitors” (BioCryst Pharmaceuticals, Inc., priority 2018, dated 2022)
pIC50: −log10 of the molar value.

The compounds below were run against Factor D (Homo sapiens (Human), UniProt P00746) (assay: Factor D esterolytic assay (Z-Lys-SBzl substrate, DTNB, 405 nm)). Settings: Z-Lys-SBzl 1.29 mM, pH 7.5, 10% DMSO, tested a minimum of three times, read-out: Measured Ki (IC50) Value for Compounds: IC50.
Assay type: biochemical
How it was run: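 Human Factor D ([…]) with 1.29 mM Z-Lys-SBzl in 100 mM HEPES, 500 mM NaCl, pH 7.5, 10% DMSO; substrate added immediately or after room-temperature preincubation. Released thiol reacted with DTNB, rate followed at 405 nm for 600 sec, 690 nm background subtracted. IC50 from percent inhibition versus uninhibited rate, n≥3.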

Sequence of Factor D (P00746 26-253): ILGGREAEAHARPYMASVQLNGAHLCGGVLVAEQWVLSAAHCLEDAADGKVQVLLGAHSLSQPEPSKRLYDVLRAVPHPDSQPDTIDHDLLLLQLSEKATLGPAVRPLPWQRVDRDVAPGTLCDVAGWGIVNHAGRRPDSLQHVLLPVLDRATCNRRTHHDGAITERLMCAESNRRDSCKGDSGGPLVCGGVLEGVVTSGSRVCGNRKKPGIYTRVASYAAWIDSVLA

pIC50, > 6.00:
COc1ccc(CC(=O)O)c(OCc2cc(-c3ccnc(CN)c3F)c3ccn(C(C)C)c3c2)c1 [Compound 448c, 2-(2-((4-(2-(aminomethyl)-3-fluoropyridin-4-yl)-1-isopropyl-1H-indol-6-yl)methoxy)-4-methoxyphenyl)acetic acid]
CC(C)n1ccc2c(-c3cccc(CN)c3)cc(COc3cc(F)ccc3CC(=O)O)cc21 [Compound 449c, 2-(2-((4-(3-(aminomethyl)phenyl)-1-isopropyl-1H-indol-6-yl)methoxy)-4-fluorophenyl)acetic acid]
CC(C)n1ccc2c(-c3cccc(CN)c3F)cc(COc3cc(F)ccc3CC(=O)O)cc21 [Compound 450b, 2-(2-((4-(3-(aminomethyl)-2-fluorophenyl)-1-isopropyl-1H-indol-6-yl)methoxy)-4-fluorophenyl)acetic acid]
NCc1ccc(CC(=O)O)c(OCc2cc(-c3ccnc(CN)c3)c3occc3c2)c1 [Compound 451c, 2-(4-(aminomethyl)-2-((7-(2-(aminomethyl)pyridin-4-yl)benzofuran-5-yl)methoxy)phenyl)acetic acid]
COCc1cc2cc(COc3cc(C)ccc3CC(=O)O)cc(-c3ccnc(CN)c3F)c2o1 [Compound 453d, 2-(2-((7-(2-(aminomethyl)-3-fluoropyridin-4-yl)-2-(methoxymethyl)benzofuran-5-yl)methoxy)-4-methylphenyl)acetic acid]
COCc1cc2cc(COc3cc(C)ccc3CC(=O)O)cc(-c3ccnc(CN)c3)c2o1 [Compound 454d, 2-(2-((7-(2-(aminomethyl)pyridin-4-yl)-2-(methoxymethyl)benzofuran-5-yl)methoxy)-4-methylphenyl)acetic acid]
NCc1ccc(CC(=O)O)c(OCc2cc(-c3cccc(CN)c3F)c3occc3c2)c1 [Compound 456c, 2-(4-(aminomethyl)-2-((7-(3-(aminomethyl)-2-fluorophenyl)benzofuran-5-yl)methoxy)phenyl)acetic acid]
NCc1cccc(-c2cc(COc3ccccc3CC(=O)O)cc3cc(COc4ccccc4)oc23)c1 [Compound 457c, 2-(2-((7-(3-(aminomethyl)phenyl)-2-(phenoxymethyl)benzofuran-5-yl)methoxy)phenyl)acetic acid]
COCc1cc2cc(COc3cc(C#N)ccc3CC(=O)O)cc(-c3cccc(CN)c3)c2o1 [Compound 458b, 2-(2-((7-(3-(aminomethyl)phenyl)-2-(methoxymethyl)benzofuran-5-yl)methoxy)-4-cyanophenyl)acetic acid]
Cc1oc2c(-c3cccc(CN)c3)cc(COc3ccccc3CC(=O)O)cc2c1-c1ccoc1 [Compound 459h, 2-(2-((7-(3-(aminomethyl)phenyl)-3-(furan-3-yl)-2-methylbenzofuran-5-yl)methoxy)phenyl)acetic acid]
Cc1cc2c(-c3ccnc(CN)c3)cc(COc3ccccc3CC(=O)O)cc2o1 [Compound 461c, 2-(2-((4-(2-(aminomethyl)pyridin-4-yl)-2-methylbenzofuran-6-yl)methoxy)phenyl)acetic acid]
COCc1cc2cc(COc3ccc(F)cc3CC(=O)O)cc(-c3cccc(CN)c3)c2o1 [Compound 462c, 2-(2-((7-(3-(aminomethyl)phenyl)-2-(methoxymethyl)benzofuran-5-yl)methoxy)-5-fluorophenyl)acetic acid]
COCc1cc2cc(COc3ccc(F)cc3CC(=O)O)cc(-c3cccc(CN)c3F)c2o1 [Compound 463b, 2-(2-((7-(3-(aminomethyl)-2-fluorophenyl)-2-(methoxymethyl)benzofuran-5-yl)methoxy)-5-fluorophenyl)acetic acid]
COc1ccc(CC(=O)O)c(OCc2cc(-c3ccnc(CN)c3F)c3occc3c2)c1 [Compound 464d, 2-(2-((7-(2-(aminomethyl)-3-fluoropyridin-4-yl)benzofuran-5-yl)methoxy)-4-methoxyphenyl)acetic acid]
COc1ccc(CC(=O)O)c(OCc2cc(-c3cccc(CN)c3F)c3occc3c2)c1 [Compound 465b, 2-(2-((7-(3-(aminomethyl)-2-fluorophenyl)benzofuran-5-yl)methoxy)-4-methoxyphenyl)acetic acid]
COCc1cc2cc(COc3cc(OC)ccc3CC(=O)O)cc(-c3cccc(CN)c3)c2o1 [Compound 466c, 2-(2-((7-(3-(aminomethyl)phenyl)-2-(methoxymethyl)benzofuran-5-yl)methoxy)-4-methoxyphenyl)acetic acid]
COCc1cc2cc(COc3cc(OC)ccc3CC(=O)O)cc(-c3cccc(CN)c3F)c2o1 [Compound 467b, 2-(2-((7-(3-(aminomethyl)-2-fluorophenyl)-2-(methoxymethyl)benzofuran-5-yl)methoxy)-4-methoxyphenyl)acetic acid]
NCc1cccc(-c2cc(COc3c(CC(=O)O)cccc3-c3ccoc3)cc3ccoc23)c1 [Compound 468h, 2-(2-((7-(3-(aminomethyl)phenyl)benzofuran-5-yl)methoxy)-3-(furan-3-yl)phenyl)acetic acid]
CCc1ccc(CC(=O)O)c(OCc2cc(-c3cccc(CN)c3)c3oc(F)cc3c2)c1 [Compound 469g, 2-(2-((7-(3-(aminomethyl)phenyl)-2-fluorobenzofuran-5-yl)methoxy)-4-ethylphenyl)acetic acid]
CCc1ccc(CC(=O)O)c(OCc2cc(-c3cccc(CN)c3F)c3oc(F)cc3c2)c1 [Compound 470b, 2-(2-((7-(3-(aminomethyl)-2-fluorophenyl)-2-fluorobenzofuran-5-yl)methoxy)-4-ethylphenyl)acetic acid]
COCc1cc2cc(COc3cc(OC)ccc3CC(=O)O)cc(-c3ccnc(CN)c3F)c2o1 [Compound 471d, 2-(2-((7-(2-(aminomethyl)-3-fluoropyridin-4-yl)-2-(methoxymethyl)benzofuran-5-yl)methoxy)-4-methoxyphenyl)acetic acid]
COCc1cc2cc(COc3cc(OC)ccc3CC(=O)O)cc(-c3ccnc(CN)c3)c2o1 [Compound 472b, 2-(2-((7-(2-(aminomethyl)pyridin-4-yl)-2-(methoxymethyl)benzofuran-5-yl)methoxy)-4-methoxyphenyl)acetic acid]
NCc1cccc(-c2c(F)c(COc3ccccc3CC(=O)O)cc3ccoc23)c1 [Compound 473e, 2-(2-((7-(3-(aminomethyl)phenyl)-6-fluorobenzofuran-5-yl)methoxy)phenyl)acetic acid]
CC(C)n1ccc2c(-c3cccc(CN)c3)cc(COc3ccc(F)cc3CC(=O)O)cc21 [Compound 474c, 2-(2-((4-(3-(aminomethyl)phenyl)-1-isopropyl-1H-indol-6-yl)methoxy)-5-fluorophenyl)acetic acid]
COc1ccc(OCc2cc(-c3cccc(CN)c3F)c3ccn(C(C)C)c3c2)c(CC(=O)O)c1 [Compound 475g, 2-(2-((4-(3-(aminomethyl)-2-fluorophenyl)-1-isopropyl-1H-indol-6-yl)methoxy)-5-methoxyphenyl)acetic acid]
COc1cccc(CC(=O)O)c1OCc1cc(-c2cccc(CN)c2)c2occc2c1 [Compound 476f, 2-(2-((7-(3-(aminomethyl)phenyl)benzofuran-5-yl)methoxy)-3-methoxyphenyl)acetic acid]
COCc1cc2cc(COc3cc(F)ccc3CC(=O)O)cc(-c3cccc(CN)c3)c2o1 [Compound 477c, 2-(2-((7-(3-(aminomethyl)phenyl)-2-(methoxymethyl)benzofuran-5-yl)methoxy)-4-fluorophenyl)acetic acid]
COCc1cc2cc(COc3cc(F)ccc3CC(=O)O)cc(-c3cccc(CN)c3F)c2o1 [Compound 478b, 2-(2-((7-(3-(aminomethyl)-2-fluorophenyl)-2-(methoxymethyl)benzofuran-5-yl)methoxy)-4-fluorophenyl)acetic acid]
CC(=O)c1ccc(CC(=O)O)c(OCc2cc(-c3cccc(CN)c3F)c3occc3c2)c1 [Compound 479d, 2-(4-acetyl-2-((7-(3-(aminomethyl)-2-fluorophenyl)benzofuran-5-yl)methoxy)phenyl)acetic acid]
COc1ccc(CC(=O)O)c(OCc2cc(-c3cccc(CN)c3)c3oc(F)cc3c2)c1 [Compound 480c, 2-(2-((7-(3-(aminomethyl)phenyl)-2-fluorobenzofuran-5-yl)methoxy)-4-methoxyphenyl)acetic acid]
COc1ccc(CC(=O)O)c(OCc2cc(-c3cccc(CN)c3F)c3oc(F)cc3c2)c1 [Compound 481b, 2-(2-((7-(3-(aminomethyl)-2-fluorophenyl)-2-fluorobenzofuran-5-yl)methoxy)-4-methoxyphenyl)acetic acid]
COc1ccc(CC(=O)O)c(OCc2cc(-c3ccnc(CN)c3)c3occc3c2)c1 [Compound 482b, 2-(2-((7-(2-(aminomethyl)pyridin-4-yl)benzofuran-5-yl)methoxy)-4-methoxyphenyl)acetic acid]
COc1ccc(CC(=O)O)c(OCc2cc(-c3ccnc(CN)c3F)c3oc(F)cc3c2)c1 [Compound 483c, 2-(2-((7-(2-(aminomethyl)-3-fluoropyridin-4-yl)-2-fluorobenzofuran-5-yl)methoxy)-4-methoxyphenyl)acetic acid]
